Among the data in US10654834B2 (Venenum Biodesign, LLC, priority 2016, dated 2020) are EC50 values, retold here.

One experiment deals with T1, human TGR5 receptor (Homo sapiens, UniProt Q8TDU6).
T1 construct: host or cells: CHO-K1 (hTGR5-CHO)
T1 sequence (Q8TDU6 1-330): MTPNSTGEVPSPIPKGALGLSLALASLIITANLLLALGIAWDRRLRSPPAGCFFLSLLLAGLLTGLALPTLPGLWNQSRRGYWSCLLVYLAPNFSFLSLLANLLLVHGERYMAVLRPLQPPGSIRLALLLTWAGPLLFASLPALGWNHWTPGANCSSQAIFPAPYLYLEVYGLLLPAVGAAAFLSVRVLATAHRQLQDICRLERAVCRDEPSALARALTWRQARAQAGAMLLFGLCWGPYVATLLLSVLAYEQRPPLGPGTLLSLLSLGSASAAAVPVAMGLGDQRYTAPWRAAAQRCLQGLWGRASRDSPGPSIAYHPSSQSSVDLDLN
As to the kind of experiment: Human TGR5 cAMP production assay (hTGR5-CHO cells, DiscoveRx cAMP XS+ kit). It counts as cell-based. As to conditions: luminescent cAMP assay, read-out: Human TGR5 Lum. cAMP Activity (EC50). A digest of the protocol: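 CHO-K1 cells stably expressing hTGR5, in PBS with IBMX and cAMP antibody, treated with half-log compound dilutions for 1 h at room temperature. cAMP measured by enzyme-fragment complementation luminescence after overnight detection; EC50 values reported.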

Another experiment has as its target T2, mouse TGR5 receptor (Mus musculus, UniProt Q80SS6).
T2 construct: host or cells: HEK293-EBNA (293 c18, ATCC CRL10852)
T2 sequence (Q80SS6 1-329): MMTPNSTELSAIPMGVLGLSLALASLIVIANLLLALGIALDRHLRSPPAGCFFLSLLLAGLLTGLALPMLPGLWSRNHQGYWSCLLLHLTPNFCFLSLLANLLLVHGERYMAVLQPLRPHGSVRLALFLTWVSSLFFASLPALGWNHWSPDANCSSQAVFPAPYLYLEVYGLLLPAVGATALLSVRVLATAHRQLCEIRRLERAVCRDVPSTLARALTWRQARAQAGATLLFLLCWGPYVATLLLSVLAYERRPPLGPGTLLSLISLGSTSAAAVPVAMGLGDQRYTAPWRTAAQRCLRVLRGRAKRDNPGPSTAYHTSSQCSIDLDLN
As to the kind of experiment: Mouse TGR5 HTRF cAMP production assay (HEK293-EBNA cells, Cisbio cAMP HiRange kit). It counts as cell-based. The following applies: HEK293-EBNA cells overexpressing mouse TGR5, HTRF cAMP assay. A digest of the protocol: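 HEK293-EBNA cells stably expressing mouse TGR5 (episomal vector) were suspended in serum-free DMEM with 500 μM IBMX and exposed to 12-point half-log compound dilutions for 1 h at room temperature. cAMP was detected by HTRF (d2-cAMP/anti-cAMP cryptate, 1 h, room temperature), giving EC50 from duplicates.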
Background: TR-FRET usually uses a lanthanide donor and a delayed reading to cut background.

A value given as a limit tells only on which side of the number the result lay.

As usually defined, the EC50 is the concentration needed to bring the measured effect to its halfway point. For `O=C(O)CCNC(=O)N1CCN(c2cc(N3CCC[C@@H](C(=O)NCCc4ccc(C(F)(F)F)cc4)C3)nc(C(F)(F)F)n2)CC1` [Compound 344, (R)-3-(4-(2-(trifluoromethyl)-6-(3-((4-(trifluoromethyl)phenethyl)carbamoyl)-piperidin-1-yl)pyrimidin-4-yl)piperazine-1-carboxamido)propanoic acid], the concentration giving a half-maximal response (EC50) on human TGR5 receptor is 100 to 999 nM; on mouse TGR5 receptor, below 100 nM.

`N#Cc1ccc(CCNC(=O)[C@@H]2CCCN(c3cc(N4CCC(CCN)CC4)nc(C(F)(F)F)n3)C2)cc1` [Compound 345, (R)-1-(6-(4-(2-aminoethyl)piperidin-1-yl)-2-(trifluoromethyl)pyrimidin-4-yl)-N-(4-cyanophenethyl)piperidine-3-carboxamide]: the EC50 at human TGR5 receptor and at mouse TGR5 receptor was below 100 nM each time.

Take `O=C(NCCc1ccc(C(F)(F)F)cc1)[C@@H]1CCCN(c2cc(N3CCN(C(=O)CO)CC3)nc(C(F)(F)F)n2)C1` [Compound 348, (R)-1-(6-(4-(2-hydroxyacetyl)piperazin-1-yl)-2-(trifluoromethyl)pyrimidin-4-yl)-N-(4-(trifluoromethyl)phenethyl)piperidine-3-carboxamide]: the figures for the EC50 at human TGR5 receptor and on mouse TGR5 receptor were 100 to 999 nM and below 100 nM, respectively.

Turning to `CCOC(=O)CCN/C(=N\C#N)NCCC1CCN(c2cc(N3CC[C@H]3C(=O)NCCc3ccc(C#N)cc3)nc(C(F)(F)F)n2)CC1` [Compound 350, (S,Z)-ethyl 3-(2-cyano-3-(2-(1-(6-(2-((4-cyanophenethyl)carbamoyl)azetidin-1-yl)-2-(trifluoromethyl)pyrimidin-4-yl)piperidin-4-yl)ethyl)guanidino)propanoate], the EC50 at human TGR5 receptor and on mouse TGR5 receptor was below 100 nM each time.

As to `CN(C)[C@@H]1C[C@@H](C(=O)NCCc2ccc(C(F)(F)F)cc2)N(c2cc(N3CCC(CCNC(=O)NCCC(=O)O)CC3)nc(C(F)(F)F)n2)C1` [Compound 352, 3-(3-(2-(1-(6-((2S,4R)-4-(dimethylamino)-2-((4-(trifluoromethyl)phenethyl)carbamoyl)pyrrolidin-1-yl)-2-(trifluoromethyl)pyrimidin-4-yl)piperidin-4-yl)ethyl)ureido)propanoic acid], the EC50 at human TGR5 receptor and on mouse TGR5 receptor was 1000 to 30000 nM in each case.

In the case of `O=C(CCCC1CCN(c2cc(N3CCC[C@H]3C(=O)NCCc3ccc(-c4ccncc4)cc3)nc(C(F)(F)F)n2)CC1)NCS(=O)(=O)O` [Compound 353, (S)-(4-(1-(6-(2-((4-(pyridin-4-yl)phenethyl)carbamoyl)pyrrolidin-1-yl)-2-(trifluoromethyl)pyrimidin-4-yl)piperidin-4-yl)butanamido)methanesulfonic acid], the EC50 at human TGR5 receptor and on mouse TGR5 receptor was below 100 nM each time.

Turning to `O=C(CCCC1CCN(c2cc(N3CCC[C@H]3C(=O)NCCc3cccc(-c4ccncc4)c3)nc(C(F)(F)F)n2)CC1)NCS(=O)(=O)O` [Compound 354, (S)-(4-(1-(6-(2-((3-(pyridin-4-yl)phenethyl)carbamoyl)pyrrolidin-1-yl)-2-(trifluoromethyl)pyrimidin-4-yl)piperidin-4-yl)butanamido)methanesulfonic acid], the EC50 on human TGR5 receptor was in the range of 1000 to 30000 nM; on mouse TGR5 receptor it was 100 to 999 nM.

For the compound `N#Cc1ccc(CCNC(=O)[C@@H]2CCN2c2cc(N3CCC(CCNC(=O)NCCOCCNC(=O)C(F)(F)F)CC3)nc(C(F)(F)F)n2)cc1` [Compound 357, (S)-N-(4-cyanophenethyl)-1-(6-(4-(13,13,13-trifluoro-4,12-dioxo-8-oxa-3,5,11-triazatridecyl)piperidin-1-yl)-2-(trifluoromethyl)pyrimidin-4-yl)azetidine-2-carboxamide], the concentration for a half-maximal effect (EC50) at human TGR5 receptor and on mouse TGR5 receptor was below 100 nM throughout.

As to `CC(=O)NCCOCCNC(=O)NCCC1CCN(c2cc(N3CC[C@H]3C(=O)NCCc3ccc(C#N)cc3)nc(C(F)(F)F)n2)CC1` [Compound 359, (S)-N-(4-cyanophenethyl)-1-(6-(4-(4,12-dioxo-8-oxa-3,5,11-triazatridecyl)piperidin-1-yl)-2-(trifluoromethyl)pyrimidin-4-yl)azetidine-2-carboxamide], the concentration giving a half-maximal response (EC50) at human TGR5 receptor and at mouse TGR5 receptor was below 100 nM in each case.

`N#Cc1ccc(CCNC(=O)[C@@H]2CCN2c2cc(N3CCC(CCCC(=O)NCCO)CC3)nc(C(F)(F)F)n2)cc1` [Compound 361, (S)-N-(4-cyanophenethyl)-1-(6-(4-(4-((2-hydroxyethyl)amino)-4-oxobutyl)piperidin-1-yl)-2-(trifluoromethyl)pyrimidin-4-yl)azetidine-2-carboxamide]: the EC50 at human TGR5 receptor and on mouse TGR5 receptor was below 100 nM in each case.

Turning to `O=C(CCCC1CCN(c2cc(N3CCC[C@H]3C(=O)NCCc3ccccc3)nc(C(F)(F)F)n2)CC1)NCS(=O)(=O)O` [Compound 365, (S)-(4-(1-(6-(2-(phenethylcarbamoyl)pyrrolidin-1-yl)-2-(trifluoromethyl)pyrimidin-4-yl)piperidin-4-yl)butanamido)methanesulfonic acid], the EC50 at human TGR5 receptor and at mouse TGR5 receptor was 100 to 999 nM in each case.

On to `N#Cc1ccccc1CCNC(=O)[C@@H]1CCCN1c1cc(N2CCC(CCCC(=O)NCS(=O)(=O)O)CC2)nc(C(F)(F)F)n1` [Compound 366, (S)-(4-(1-(6-(2-((2-cyanophenethyl)carbamoyl)pyrrolidin-1-yl)-2-(trifluoromethyl)pyrimidin-4-yl)piperidin-4-yl)butanamido)methanesulfonic acid], for which the EC50 at human TGR5 receptor and at mouse TGR5 receptor was below 100 nM each time.

Consider `N#Cc1ccc(CCNC(=O)[C@@H]2CCCN2c2cc(N3CCC(CCNc4c(NCCS(=O)(=O)NCC(=O)O)c(=O)c4=O)CC3)nc(C(F)(F)F)n2)cc1` [Compound 370, (S)-2-(2-((2-((2-(1-(6-(2-((4-cyanophenethyl)carbamoyl)pyrrolidin-1-yl)-2-(trifluoromethyl)pyrimidin-4-yl)piperidin-4-yl)ethyl)amino)-3,4-dioxocyclobut-1-en-1-yl)amino)ethylsulfonamido)acetic acid], for which the EC50 on human TGR5 receptor and on mouse TGR5 receptor was below 100 nM in each case.

Consider `N#Cc1ccc(CCNC(=O)[C@@H]2CCCN2c2cc(N3CCC(CCNC(=O)NCCNC(=O)[C@@H](N)CS(=O)(=O)O)CC3)nc(C(F)(F)F)n2)cc1` [Compound 373, (R)-2-amino-3-((2-(3-(2-(1-(6-((S)-2-((4-cyanophenethyl)carbamoyl)pyrrolidin-1-yl)-2-(trifluoromethyl)pyrimidin-4-yl)piperidin-4-yl)ethyl)ureido)ethyl)amino)-3-oxopropane-1-sulfonic acid], for which the 50% effective concentration (EC50) at human TGR5 receptor and at mouse TGR5 receptor was below 100 nM each time.

`O=C(O)CCNC(=O)NCCC1CCN(c2cc(N3C[C@@H](O)C[C@H]3C(=O)NCCc3ccc(C(F)(F)F)cc3)nc(C(F)(F)F)n2)CC1` [Compound 374, 3-(3-(2-(1-(6-((2S,4S)-4-hydroxy-2-((4-(trifluoromethyl)phenethyl)carbamoyl)pyrrolidin-1-yl)-2-(trifluoromethyl)pyrimidin-4-yl)piperidin-4-yl)ethyl)ureido)propanoic acid]: the EC50 at human TGR5 receptor and at mouse TGR5 receptor was below 100 nM in each case.

On to `N[C@@H]1C[C@@H](C(=O)NCCc2ccc(C(F)(F)F)cc2)N(c2cc(N3CCC(CCNC(=O)NCCC(=O)O)CC3)nc(C(F)(F)F)n2)C1` [Compound 375, 3-(3-(2-(1-(6-((2S,4R)-4-amino-2-((4-(trifluoromethyl)phenethyl)carbamoyl)pyrrolidin-1-yl)-2-(trifluoromethyl)pyrimidin-4-yl)piperidin-4-yl)ethyl)ureido)propanoic acid], for which the 50% effective concentration (EC50) at human TGR5 receptor is 1000 to 30000 nM; on mouse TGR5 receptor, 100 to 999 nM.

Consider `O=C(O)CCNC(=O)NCCC1CCN(c2cc(N3CCC[C@H]3C(=O)NCCc3ccc(-c4ccncc4)cc3)nc(C(F)(F)F)n2)CC1` [Compound 376, (S)-3-(3-(2-(1-(6-(2-((4-(pyridin-4-yl)phenethyl)carbamoyl)pyrrolidin-1-yl)-2-(trifluoromethyl)pyrimidin-4-yl)piperidin-4-yl)ethyl)ureido)propanoic acid], for which the EC50 on human TGR5 receptor was 100 to 999 nM; on mouse TGR5 receptor it was below 100 nM.

For the compound `O=C(O)CCNC(=O)NCCC1CCN(c2cc(N3CCC[C@H]3C(=O)NCCc3ccc(-c4cccnc4)cc3)nc(C(F)(F)F)n2)CC1` [Compound 377, (S)-3-(3-(2-(1-(6-(2-((4-(pyridin-3-yl)phenethyl)carbamoyl)pyrrolidin-1-yl)-2-(trifluoromethyl)pyrimidin-4-yl)piperidin-4-yl)ethyl)ureido)propanoic acid], the EC50 at human TGR5 receptor and on mouse TGR5 receptor was 100 to 999 nM each time.
